The results in this text go back to patent publication US11040975B2, “Carbocyclic nucleoside reverse transcriptase inhibitors” (Merck Sharp & Dohme Corp., priority 2017, dated 2021).

One data set relates to HIV-1 (H9IIIB virus). Kind of data set: Viking assay: antiviral potency in a multiple round HIV-1 infection assay (MT4-GFP cells). Type of data set: cell-based. The following applies: Human immunodeficiency virus 1, MT4-GFP cells, 10% normal human serum; inhibition of reproductive ratio R0; read-out: Viking, IC50 (10% NHS). Here is the method: Assessing Antiviral Potency in a Multiple Round HIV-1 Infection Assay.
HIV-1 replication was monitored using MT4-gag-GFP clone D3 (hereafter designate MT4-GFP), which are MT-4 cells modified to harbor a GFP reporter gene, the expression of which is dependent on the HIV-1 expressed proteins tat and rev. Productive infection of an MT4-GFP cell with HIV-1 results in GFP expression approximately 24h post-infection.
MT4-GFP cells were maintained at 37° C./5% CO2/90% relative humidity in RPMI 1640 supplemented with 10% fetal bovine serum, 100 U/mL penicillin/streptomycin, and 400 μg/mL G418 to maintain the reporter gene. For infections, MT4-GFP cells were placed in the same medium lacking G418 and infected overnight with H9IIIB virus at an approximate multiplicity of infection of 0.01 in the same incubation conditions. Cells were then washed and re-suspended in either RPMI 1640 containing 10% or 50% normal human serum at 1.6×10^5 cells/mL. Compound plates were prepared by dispensing compounds dissolved in DMSO into wells of 384 well poly D lysine-coated plates ([…]) using an ECHO acoustic dispenser. Each compound was tested in a 10 point serial 3-fold dilution (typical final concentrations: 8.4 μM-0.43 nM). Controls included no inhibitor (DMSO only) and a combination of three antiviral agents (efavirenz, indinavir, and an integrase strand transfer inhibitor at final concentrations of 4 μM each). Cells were added (50 μL/well) to compound plates and the infected cells were maintained at 37° C./5% CO2/90% relative humidity.
Infected cells were quantified at two time points, ˜48h and ˜72h post-infection, by counting the number of green cells in each well using an Acumen eX3 scanner. The increase in the number of green cells over ˜24h period gives the reproductive ratio, R0, which is typically 5-15 and has been shown experimentally to be in logarithmic phase (data not shown). Inhibition of R0 is calculated for each well, and IC50s determined by non-linear 4-parameter curve fitting.

Another data set relates to MT4-GFP cells. Kind of data set: CTG assay: cytotoxicity in CellTiter-Glo Luminescent Cell Viability Assay. Format: cell-based. As to conditions: CC50, MT4-GFP cells, 10% normal human serum, 48h incubation. Here is the method:
Assessing Cytotoxicity in CellTiter-Glo Luminescent Cell Viability Assay (CTG).
MT4-GFP cells were seeded in RPMI 1640 supplemented with 10% fetal bovine serum, 100 U/mL penicillin/streptomycin overnight at 37° C./5% CO2/90% relative humidity. Cells were then washed and resuspended in RPMI 1640 containing 10% normal human serum at a density of 0.8×10^5 cells/mL. Compound plates were prepared by dispensing compounds dissolved in DMSO into wells of 384 well solid black plates (Corning 3571) using an ECHO acoustic dispenser (0.2 μl/well). Each compound was tested in a 10 point serial 3-fold dilution (final concentrations: 8.4 μM-0.43 nM). Controls included DMSO. Cells were added (50 μL/well) to compound plates and were maintained at 37° C./5% CO2/90% relative humidity. CTG reagent (Promega, G7573) was added to the cell plates after 48h incubation according to the manufacturer's description. Luminescence signals were recorded on EnVision plate reader (PerkinElmer). CC50s were determined by non-linear 4-parameter curve fitting. The resulting data is shown in Table 3 with the marketed HIV nucleoside reverse transcriptase inhibitor AZT (azidothymidine, zidovudine) included as a control.
A general note: ATP-based viability assays read luminescence as a measure of living cells.

A further data set concerns the target T1, HIV-1 RT enzyme (Human immunodeficiency virus type 1 group M subtype B, UniProt P04585).
T1 construct: Full-length wild-type and 2 mutant RT proteins were expressed in Escherichia coli BL21(DE3) cells and purified; made in house; host or cells: Escherichia coli BL21(DE3)
The data set is described as follows: RT Polymerase Assay. Format: biochemical. As to conditions: HIV-1 RT 50 pM; 90 min at 37° C.; triphosphates tested; read-out: dNTP IC50. The text has this:
The compounds of Formula I, and pharmaceutically acceptable salts thereof, are HIV reverse transcriptase inhibitors. The compounds are useful for inhibiting HIV reverse transcriptase and for inhibiting HIV replication in vitro and in vivo. More particularly, the compounds of Formula I inhibit the polymerase function of HIV-1 reverse transcriptase. The testing of compounds of the Examples of the invention in the assay set forth in the RT Polymerase Assay below, illustrates the ability of compounds of the invention to inhibit the RNA-dependent DNA polymerase activity of HIV-1 reverse transcriptase. The compounds of Formula I may also be useful agents against HIV-2.
Full-length wild-type and 2 mutant RT proteins were expressed in Escherichia coli BL21(DE3) cells and purified. Briefly, the heterodimeric nucleic acid substrate used in the HIV-1 RT polymerase reactions was generated by annealing biotinylated DNA primer to a 500 nucleotide RNA template. The HIV-1 RT enzyme (final concentration of 50 pM) was combined with an inhibitor compound or DMSO (10% DMSO in the final reaction mixture) in assay buffer (62.5 mM Tris-HCl, pH 7.8, 1.25 mM dithiothreitol, 7.5 mM MgCl2, 100 mM KCl, 0.03% CHAPS, 0.125 mM EGTA). This mixture was pre-incubated for 30 minutes at room temperature in microtiter plates. The polymerization reaction was initiated by the addition of template/primer substrate (final concentration: 16.6 nM) and dNTPs (final concentration: 2 μM dCTP, dGTP, dATP, and 66.6 nM Ru-dUTP). After 90 min of incubation at 37° C., reactions were quenched by the addition of EDTA (25 mM). The resulting mixture was incubated for an additional 5 minutes at room temperature followed by transferring the solution (50 μL) to blocked avidin plate from Meso Scale Discovery (MSD). The mixtures were incubated at room temperature for 60 min prior to the quantification of the reaction product via an ECL 6000 imager instrument.

For orientation: IC50 means the point on the concentration scale where inhibition reaches its midpoint. As to `C#C[C@]1(CO)C[C@@H](n2cnc3c(N)nc(F)nc32)C[C@@H]1O` (racemic) [Example (+/−) 13, (1S,2S,4R)-4-(6-amino-2-fluoro-9H-purin-9-yl)-2-ethynyl-2-(hydroxymethyl)cyclopentan-1-ol and (1R,2R,4S)-4-(6-amino-2-fluoro-9H-purin-9-yl)-2-ethynyl-2-(hydroxymethyl)cyclopentan-1-ol], the IC50 with HIV-1 (H9IIIB virus) was 5.43 µM. The CTG in the data set on MT4-GFP cells was more than 42 µM. Taken in the same sequence, the figures for `C#C[C@]1(CO)C[C@@H](n2cnc3c(Cl)nc(N)nc32)C[C@@H]1O` (racemic) [Example (+/−) 14, (1S,2S,4R)-4-(2-amino-6-chloro-9H-purin-9-yl)-2-ethynyl-2-(hydroxymethyl)cyclopentan-1-ol and (1R,2R,4S)-4-(2-amino-6-chloro-9H-purin-9-yl)-2-ethynyl-2-(hydroxymethyl)cyclopentan-1-ol] were 5.64 µM and more than 42 µM. Taken in the same sequence, the figures for `C#C[C@]1(CO)C[C@@H](n2cnc3c(Cl)nc(Cl)nc32)C[C@@H]1O` (racemic) [Example (+/−) 17, (1S,2S,4R)-4-(2,6-dichloro-9H-purin-9-yl)-2-ethynyl-2-(hydroxymethyl)cyclopentan-1-ol and (1R,2R,4S)-4-(2,6-dichloro-9H-purin-9-yl)-2-ethynyl-2-(hydroxymethyl)cyclopentan-1-ol] were 17.4 µM and 19.9 µM. For `C#C[C@]1(CO)C[C@@H](n2cnc3c(N)nc(Cl)nc32)C[C@@H]1O` (racemic) [Example (+/−) 18, (1S,2S,4R)-4-(6-amino-2-chloro-9H-purin-9-yl)-2-ethynyl-2-(hydroxymethyl)cyclopentan-1-ol and (1R,2R,4S)-4-(6-amino-2-chloro-9H-purin-9-yl)-2-ethynyl-2-(hydroxymethyl)cyclopentan-1-ol], in that order: 19 µM and more than 42 µM.

With `C#C[C@@]1(CO)C[C@H](n2cnc3c(N)nc(Cl)nc32)C[C@H]1O` (single isomer, unassigned) [Example 18A, (1S,2S,4R)-4-(6-amino-2-chloro-9H-purin-9-yl)-2-ethynyl-2-(hydroxymethyl)cyclopentan-1-ol or (1R,2R,4S)-4-(6-amino-2-chloro-9H-purin-9-yl)-2-ethynyl-2-(hydroxymethyl)cyclopentan-1-ol], the IC50 in the data set with HIV-1 (H9IIIB virus) turned out to be 25.2 µM. This compound also came in with a CTG with MT4-GFP cells of more than 42 µM. For `Cc1cn([C@H]2C[C@H](N=[N+]=[N-])[C@@H](CO)O2)c(=O)[nH]c1=O` [AZT, 3′-azido-3′-deoxythymidine, reference compound], in that order: 0.037 µM and more than 8.4 µM. On to “((1S,2S,4R)-4-(2-amino-6-chloro-9H-purin-9-yl)-1-ethynyl-2-hydroxycyclopentyl)methyl tetrahydrogen triphosphate and ((1R,2R,4S)-4-(2-amino-6-chloro-9H-purin-9-yl)-1-ethynyl-2-hydroxycyclopentyl)methyl tetrahydrogen triphosphate [Example (+/−) 42]”, for which the IC50 at HIV-1 RT enzyme was 1.32e+07 pM.

For the compound “((1S,2S,4R)-4-(4-amino-2-chloro-7H-pyrrolo[2,3-d]pyrimidin-7-yl)-1-ethynyl-2-hydroxycyclopentyl)methyl tetrahydrogen triphosphate and ((1R,2R,4S)-4-(4-amino-2-chloro-7H-pyrrolo[2,3-d]pyrimidin-7-yl)-1-ethynyl-2-hydroxycyclopentyl)methyl tetrahydrogen triphosphate [Example (+/−) 46]”, the IC50 at HIV-1 RT enzyme stood at 1.39e+07 pM.

Turning to “((1S,2S,4R)-4-(6-amino-2-chloro-9H-purin-9-yl)-1-ethynyl-2-hydroxycyclopentyl)methyl tetrahydrogen triphosphate and ((1R,2R,4S)-4-(6-amino-2-chloro-9H-purin-9-yl)-1-ethynyl-2-hydroxycyclopentyl)methyl tetrahydrogen triphosphate [Example (+/−) 44]”, the IC50 on HIV-1 RT enzyme was found to be 2.02e+07 pM. On the same count and under the same terms, the result for “((1S,2S,4R)-4-(6-amino-2-chloro-9H-purin-9-yl)-1-ethynyl-2-hydroxycyclopentyl)methyl tetrahydrogen triphosphate or ((1R,2R,4S)-4-(6-amino-2-chloro-9H-purin-9-yl)-1-ethynyl-2-hydroxycyclopentyl)methyl tetrahydrogen triphosphate [Example 44B]” reads 9.32e+06 pM; that for “((1S,2S,4R)-4-(6-amino-2-fluoro-9H-purin-9-yl)-1-ethynyl-2-hydroxycyclopentyl)methyl tetrahydrogen triphosphate and ((1R,2R,4S)-4-(6-amino-2-fluoro-9H-purin-9-yl)-1-ethynyl-2-hydroxycyclopentyl)methyl tetrahydrogen triphosphate [Example (+/−) 41]”, 3.46e+06 pM. “((1S,2S,4R)-4-(6-chloro-2-fluoro-9H-purin-9-yl)-1-ethynyl-2-hydroxycyclopentyl)methyl tetrahydrogen triphosphate and ((1R,2R,4S)-4-(6-chloro-2-fluoro-9H-purin-9-yl)-1-ethynyl-2-hydroxycyclopentyl)methyl tetrahydrogen triphosphate [Example (+/−) 40]”: at HIV-1 RT enzyme, the IC50 was more than 1e+08 pM.
